We go through 1 molecule from patent US8557820B2, “Crystal modifications of transmission dyes” (BASF SE, priority 2007, dated 2013).

A short description of the data set: Thermodynamic / phase stability of the crystal modification at 25° C. The class given is physicochemical. How it is done:
This modification is therefore suitable in dispersions comprising micro-fine particles.
Advantageously, dispersions comprising this specific crystal modification are not subjected to phase transformations resulting in a crystal growth.
5 g of the compound obtained in Example A2 (modification (B)) and 5 g of the compound of formula (1) obtained in Example A1 are elutriated in 50 g N-methylpyrrolidone at 25° C.
The suspension is stirred for 3 days at 25° C.

For `CCN(CC)c1ccc(C(=O)c2ccccc2C(=O)N2CCN(C(=O)c3ccccc3C(=O)c3ccc(N(CC)CC)cc3O)CC2)c(O)c1` [crystal modification (C)], the “thermodynamic stability of the crystal modification” value was “thermodynamically stable”.
